For this test, the system named is Acyrthosiphon pisum (A. pisum). Description: Repellent activity test, glass two-way olfactometer. The settings on record: 0.25 h, wingless A. pisum, 2.5 µL of 2000 mg/L test solution in n-hexane on filter paper, 15 min, RP = (C − T)/(C + T) × 100%, mean ± standard deviation, read-out: RP (%) repellency proportion. The test is classed as in vivo. The procedure:
The behavioral response of A. pisum to 5a-5x was investigated with a glass two-way olfactometer, and the aphid-repellent activity was carried out according to our previously published method. The aphids were reared in a growth chamber (at 23 ± 1 °C, with a […]:8D photoperiod and 70% relative humidity) at China Agricultural University. The compounds were weighed, dissolved in n-hexane, and prepared into a test solution with a concentration of 2000 mg/L using n-hexane as a blank control. About 20 wingless A. pisum were placed through the release port and each arm was pumped with 0.2 L/min of activated carbon and distilled water. One arm was chosen as the “treatment” (T) arm and another was the “control” (C) arm. For the “T” arm, 2.5 μL of test solutions were applied to filter paper strips (1 cm^2 diameter), and 2.5 μL of n-hexane was applied for the “C” arm. The number of aphids in each direction was recorded for 15 min at 2 cm from the center of the horizontal arm. The olfactometer was washed with ethanol, the filter paper was replaced, and the two arms were switched and the experiment was repeated four times for each treatment. The repellent activity was evaluated using RP as the formula RP = (C - T)/(C+T) × 100%, where T and C mean the number of aphids in the treatment and control arm, respectively. The RP values of the derivatives were statistically analyzed with SPSS 24.0 (SPSS Inc., Chicago, IL, USA) using a one-way analysis of variance (ANOVA), followed by a Duncan's test with a significance set at p < 0.05.

Consider 26 compounds from publication PMC9502202, “Discovery of Novel Potential Aphid Repellents: Geranic Acid Esters Containing Substituted Aromatic Rings” (Molecules, 2022).

For the compound `CC(C)=CCC/C(C)=C/C(=O)Oc1ccccc1` [5a], the pest or weed control at 2000 µg/mL stood at 38.1 ± 2.38%.

Regarding `CC(C)=CCC/C(C)=C/C(=O)Oc1ccccc1C` [5b, 2-tolyl (E)-3,7-dimethylocta-2,6-dienoate], the pest or weed control at 2000 µg/mL was 35.2 ± 2.65%.

For the compound `CC(C)=CCC/C(C)=C/C(=O)Oc1cccc(C)c1` [5c, 3-tolyl (E)-3,7-dimethylocta-2,6-dienoate], the pest or weed control at 2000 µg/mL worked out at 39.8 ± 1.95%.

As for `CC(C)=CCC/C(C)=C/C(=O)Oc1ccc(C)cc1` [5d, 4-tolyl (E)-3,7-dimethylocta-2,6-dienoate], the pest or weed control at 2000 µg/mL worked out at 38.7 ± 2.75%. In the case of `COc1ccccc1OC(=O)/C=C(\C)CCC=C(C)C` [5e, 2-methoxyphenyl (E)-3,7-dimethylocta-2,6-dienoate], the pest or weed control at 2000 µg/mL worked out at 37.4 ± 2.08%. On to `COc1cccc(OC(=O)/C=C(\C)CCC=C(C)C)c1` [5f, 3-methoxyphenyl (E)-3,7-dimethylocta-2,6-dienoate], for which the pest or weed control at 2000 µg/mL came out at 55.6%.

With `COc1ccc(OC(=O)/C=C(\C)CCC=C(C)C)cc1` [5g, 4-methoxyphenyl (E)-3,7-dimethylocta-2,6-dienoate], the pest or weed control at 2000 µg/mL was determined as 43.6 ± 3.09%. With `CC(C)=CCC/C(C)=C/C(=O)Oc1ccccc1Cl` [5h, 2-chlorophenyl (E)-3,7-dimethylocta-2,6-dienoate], the pest or weed control at 2000 µg/mL worked out at 31.8 ± 1.31%. Under `CC(C)=CCC/C(C)=C/C(=O)Oc1cccc(Cl)c1` [5i, 3-chlorophenyl (E)-3,7-dimethylocta-2,6-dienoate] stands 51.4 ± 1.2%; under `CC(C)=CCC/C(C)=C/C(=O)Oc1ccc(Cl)cc1` [5j, 4-chlorophenyl (E)-3,7-dimethylocta-2,6-dienoate], 38.7 ± 2.75%.

For `CC(C)=CCC/C(C)=C/C(=O)Oc1ccccc1F` [5k, 2-fluorophenyl (E)-3,7-dimethylocta-2,6-dienoate], the pest or weed control at 2000 µg/mL worked out at 28.8 ± 1.31%.

For the compound `CC(C)=CCC/C(C)=C/C(=O)Oc1cccc(F)c1` [5l, 3-fluorophenyl (E)-3,7-dimethylocta-2,6-dienoate], the pest or weed control at 2000 µg/mL was 34.9 ± 3.3%. With `CC(C)=CCC/C(C)=C/C(=O)Oc1ccc(F)cc1` [5m, 4-fluorophenyl (E)-3,7-dimethylocta-2,6-dienoate], the pest or weed control at 2000 µg/mL was 27.9 ± 2.85%. As to `CC(C)=CCC/C(C)=C/C(=O)Oc1ccccc1[N+](=O)[O-]` [5n, 2-nitrophenyl (E)-3,7-dimethylocta-2,6-dienoate], the pest or weed control at 2000 µg/mL was 23.4 ± 2.35%. Take `CC(C)=CCC/C(C)=C/C(=O)Oc1cccc([N+](=O)[O-])c1` [5o, 3-nitrophenyl (E)-3,7-dimethylocta-2,6-dienoate]: the pest or weed control at 2000 µg/mL turned out to be 41.5 ± 1.49%. For the compound `CC(C)=CCC/C(C)=C/C(=O)Oc1ccc([N+](=O)[O-])cc1` [5p, 4-nitrophenyl (E)-3,7-dimethylocta-2,6-dienoate], the pest or weed control at 2000 µg/mL came to 39.8 ± 1.95%. Turning to `CC(C)=CCC/C(C)=C/C(=O)Oc1ccccc1Br` [5q, 2-bromophenyl (E)-3,7-dimethylocta-2,6-dienoate], the pest or weed control at 2000 µg/mL was found to be 42.7 ± 1.36%. Regarding `CC(C)=CCC/C(C)=C/C(=O)Oc1cccc(Br)c1` [5r, 3-bromophenyl (E)-3,7-dimethylocta-2,6-dienoate], the pest or weed control at 2000 µg/mL was 51.2 ± 1.94%. Consider `CC(C)=CCC/C(C)=C/C(=O)Oc1ccc(Br)cc1` [5s, 4-bromophenyl (E)-3,7-dimethylocta-2,6-dienoate], for which the pest or weed control at 2000 µg/mL turned out to be 43.4%. On to `CC(C)=CCC/C(C)=C/C(=O)Oc1ccccc1OC(F)(F)F` [5t, 2-(trifluoromethoxy)phenyl (E)-3,7-dimethylocta-2,6-dienoate], for which the pest or weed control at 2000 µg/mL was found to be 28.2 ± 1.55%. Consider `CC(C)=CCC/C(C)=C/C(=O)Oc1cccc(OC(F)(F)F)c1` [5u, 3-(trifluoromethoxy)phenyl (E)-3,7-dimethylocta-2,6-dienoate], for which the pest or weed control at 2000 µg/mL stood at 38 ± 2.54%. For `CC(C)=CCC/C(C)=C/C(=O)Oc1ccc(OC(F)(F)F)cc1` [5v, 4-(trifluoromethoxy)phenyl (E)-3,7-dimethylocta-2,6-dienoate], the pest or weed control at 2000 µg/mL amounted to 24.9 ± 2.52%. Regarding `CC(C)=CCC/C(C)=C/C(=O)Oc1c(F)cccc1F` [5w, 2,6-difluorophenyl (E)-3,7-dimethylocta-2,6-dienoate], the pest or weed control at 2000 µg/mL came out at 36.7%.

For the compound `CC(C)=CCC/C(C)=C/C(=O)Oc1c(Br)cccc1Br` [5x, 2,6-dibromophenyl (E)-3,7-dimethylocta-2,6-dienoate], the pest or weed control at 2000 µg/mL was found to be 43.9 ± 2.09%. Under `CC(C)=CCC/C(C)=C/COC(=O)c1ccc(Br)cc1` [CAU14, reference compound] stands 33.5%. As for `CC(C)=CCC/C(C)=C/COC(=O)c1c(F)cccc1F` [CAU15, reference compound], the pest or weed control at 2000 µg/mL came out at 18.3%.
